Test system: XANST (Xanthium strumarium, common cocklebur)
Test: Pre-emergence soil-applied mixtures, greenhouse
Type: in vivo, Xanthium strumarium L.
Conditions: for Visual Weed Control (%) Obs: 32 DAA
Description: Seeds or nutlets of the desired test plant species were planted in a soil matrix prepared by mixing a loam soil (32 percent silt, 23 percent clay, and 45 percent sand, with a pH of about 6.5 and an organic matter content of about 1.9 percent) and calcareous grit in an 80 to 20 ratio. The soil matrix was contained in plastic pots with a volume of 1 quart and a surface area of 83.6 square centimeters (cm^2).
Treatments consisted of the benzyl ester of 4-amino-3-chloro-5-fluoro-6-(4-chloro-2-fluoro-3-methoxy-phenyl)pyridine-2-carboxylic acid (compound A) formulated as an SC (suspension concentrate) and various herbicidal components alone and in combination. Forms of compound A were applied on an acid equivalent basis.
Other herbicidal components were applied on an acid equivalent or active ingredient basis and included the PSII-inhibiting herbicides, atrazine formulated as Atrazine® 90WDG, metribuzin formulated as Metribuzin 75DF, simazine formulated as Princep Caliber 90, tebuthiuron formulated as Spike 80DF, cyanazine (technical grade material), hexazinone (technical grade material), linuron (technical grade material), terbuthylazine (technical grade material), and diuron formulated as Diuron 4L.
Treatment requirements were calculated based upon the rates being tested, the concentration of active ingredient or acid equivalent in the formulation, and a 12 mL application volume at a rate of 187 L/ha.
For treatments comprised of formulated compounds, measured amounts of compounds were placed individually in 25 mL glass vials and diluted in a volume of 1.25% (v/v) Agri-Dex® crop oil concentrate (COC) to obtain 12× stock solutions. […] Application solutions were prepared by adding an appropriate amount of each stock solution (e.g., 1 mL) and diluted to the appropriate final concentrations with the addition of 10 mL of an aqueous mixture of 1.25% (v/v) COC so that the final spray solutions contained 1.25% (v/v) COC.
For treatments comprised of technical compounds, weighed amounts can be placed individually in 25 mL glass vials and dissolved in a volume of 97:3 (v/v) acetone/DMSO to obtain 12× stock solutions. […] Application solutions can be prepared by adding an appropriate amount of each stock solution (e.g., 1 mL) and diluted to the appropriate final concentrations with the addition of 10 mL of an aqueous mixture of 1.5% (v/v) COC so that the final spray solutions contain 1.25% (v/v) COC. When technical materials are used, the concentrated stock solutions can be added to the spray solutions so that the final acetone and DMSO concentrations of the application solutions are 16.2% and 0.5%, respectively.
For treatments comprised of formulated and technical compounds, weighed amounts of the technical materials can be placed individually in 25 mL glass vials and dissolved in a volume of 97:3 (v/v) acetone/DMSO to obtain 12× stock solutions, and measured amounts of the formulated compounds can be placed individually in 25 mL glass vials and diluted in a volume of 1.5% (v/v) COC or water to obtain 12× stock solutions. […] Application solutions can be prepared by adding an appropriate amount of each stock solution (e.g., 1 mL) and diluted to the appropriate final concentrations with the addition of an appropriate amount of an aqueous mixture of 1.5% (v/v) COC so that the final spray solutions contain 1.25% (v/v) COC. As required, additional water and/or 97:3 (v/v) acetone/DMSO can be added to individual application solutions so that the final acetone and DMSO concentrations of the application solutions being compared are 8.1% and 0.25%, respectively.
All stock solutions and applications solutions were visually inspected for compound compatibility prior to application. Spray solutions were applied to the soil with an overhead Mandel track sprayer equipped with a 8002E nozzles calibrated to deliver 187 L/ha over an application area of 0.503 m^2 at a spray height of 18 inches (46 cm) above average pot height. […]

[1] = Compound A Benzyl Ester 16 g ae/ha
[2] = Compound A Benzyl Ester 32 g ae/ha

With `COc1c(Cl)ccc(-c2nc(C(=O)OCc3ccccc3)c(Cl)c(N)c2F)c1F` [Compound A Benzyl Ester, benzyl ester of 4-amino-3-chloro-5-fluoro-6-(4-chloro-2-fluoro-3-methoxy-phenyl)pyridine-2-carboxylic acid] the “Visual Weed Control (%) Obs” value (8 g ae/ha) was 33%, the “Visual Weed Control (%) Obs” value (16 g ae/ha) was 35% and the “Visual Weed Control (%) Obs” value (32 g ae/ha) was 65%. The “Visual Weed Control (%) - 27 DAA XANST Obs” value [1] was 10%, the “Visual Weed Control (%) - 29 DAA XANST Obs” value [1] was 0% and the “Visual Weed Control (%) - 33 DAA XANST Obs” value [1] was 38%. For the same compound, the “Visual Weed Control (%) - 27 DAA XANST Obs” value [2] was 25%, the “Visual Weed Control (%) - 29 DAA XANST Obs” value [2] was 5% and the “Visual Weed Control (%) - 33 DAA XANST Obs” value [2] was 35%.

For `CCNc1nc(Cl)nc(NCC)n1` [Simazine, 6-chloro-N,N′-diethyl-1,3,5-triazine-2,4-diamine, reference compound], the “Visual Weed Control (%) - 33 DAA XANST Obs” value (Simazine 1120 g ai/ha) was 70% and the “Visual Weed Control (%) - 33 DAA XANST Obs” value (Simazine 2240 g ai/ha) was 92%.

`CCNc1nc(Cl)nc(NC(C)C)n1` [Atrazine, 6-chloro-N-ethyl-N′-(1-methylethyl)-1,3,5-triazine-2,4-diamine, reference compound] was tested, and the “Visual Weed Control (%) Obs” value (560 g ai/ha) was 68% and the “Visual Weed Control (%) Obs” value (1120 g ai/ha) was 40%.
